The values that follow come from patent publication US20250223561A1, “PHARMACEUTICAL COMPOSITION CONTAINING miR-140 AND METHOD FOR PRODUCING SAME” (HIROKO SCIENCE INC., priority 2022, published 2025).

Experiment [1] relates to immortalized chondrocytes. As to the kind of experiment: Total RNA extracted from exosomal fractions of immortalized chondrocytes treated with exosome release enhancers (Nano Drop). It is filed as cell-based, human. The conditions noted are these: for Nucleic Acid conc.: RNA from exosomal fraction of culture supernatant, cells cultured with 10 nM estradiol, enhancer added on day four (10 uM monensin, 20 nM aplimod, 10 uM D609), Nano Drop, dilution ratio 1; for Amount of RNAs: same samples, liquid volume 15 ul. On the procedure:
(§1) The fifth passage of immortalized chondrocytes was passaged and seeded in four flasks with a volume of 75 cm^2 at a concentration of 1.5×10^6 cells per flask. Culturing was started after adding 10 nM of estradiol to three of them and without adding it to one of them. […] The medium was collected from each flask the following day and then centrifuged at 1,500 rpm for 5 min. The supernatants were further filtered through a filter with a pore size of 0.22 um and stored as exosomal fractions at −80° C. until an analysis of miR.
MicroRNAs were extracted from the exosomal fractions in Example 2 using an exoRNAeasy Serum/Plasma Maxi Kit (Qiagen). The A260/A280 and A260/A230 ratios of the extracted RNAs were measured using a spectrophotometer Nano Drop One (Thermo Fisher Scientific), showing that the samples were free of protein and salt impurities. Electrophoresis of the samples was further conducted using Agilent 2100 Bioanalyzer (Aligent Technologies), confirming that only the target nucleic acids were contained.

A further experiment has as its system miR-140. As to the kind of experiment: Expression of miR-140 in exosomal fractions by real-time PCR. It is filed as cell-based, human. The conditions noted are these: for Cp value: Hs miR-140_1 primer assay (miR-140-5p), single replicates n1, n2, low Cp value means a large amount of miR-140; for Cp value Average: Hs miR-140_1 primer assay, average of n1 and n2. The protocol: as §1
cDNA synthesis was conducted with the extracted RNAs using miScript II RT Kit (catalog No. 218160, Qiagen) under the following conditions.
Real-time PCR reactions were conducted on a real-time PCR system (LightCycler 480, Roche) under the following conditions using miScript SYBR Green PCR Kit (catalog No. 218073, Qiagen) with the cDNAs synthesized as described above. The primer for the miR-140 measurement was Hs_miR-140_1 miScript Primer Assay (catalog No. MS00003500, has-miR-140-5p: MIMAT0000431).

SMILES strings stand for the structures. Several values for one entry are separate records, joined by “and”; a condition that tells them apart may be missing. Identical values can stand only once.

As to `Cc1cccc(/C=N/Nc2cc(N3CCOCC3)nc(OCCc3ccccn3)n2)c1` [Apl, aplimod], in experiment [1], the “Nucleic Acid conc.” value stood at 179.7 ng/µL and the “Amount of RNAs” value is 2695.9 ng. Moreover, in the experiment with miR-140 (listed as 3-Apl), the Cp value was 36.78 and 36.76. In addition, the “Cp value Average” value with miR-140 came to 36.77.
For `S=C(S)OC1CC2CC1C1CCCC21` (stereo not drawn) [D, D609], in experiment [1], the “Nucleic Acid conc.” value was found to be 206.3 ng/µL and the “Amount of RNAs” value was 3094.4 ng. Also, the Cp value with miR-140 (listed as 4-D) is 36.84 and 36.89. Besides, the “Cp value Average” value in the experiment with miR-140 was determined as 36.87.
Regarding `CC[C@@]1([C@@H]2O[C@@H]([C@H]3O[C@@](O)(CO)[C@H](C)C[C@@H]3C)C[C@@H]2C)CC[C@H]([C@]2(C)CC[C@]3(C[C@H](O)[C@@H](C)[C@@H]([C@@H](C)[C@@H](OC)[C@H](C)C(=O)O)O3)O2)O1` [Mo, monensin], in experiment [1], the “Nucleic Acid conc.” value was found to be 290.5 ng/µL and the “Amount of RNAs” value is given as 4357.6 ng. In experiment [1] (compared with control, aplimod and D609 samples), the “amount of nucleic acid collected (comparison among treatments)” value is “highest”. Besides, the “miR-140 content compared with the other groups” value with miR-140 (from real-time PCR Cp values) is “nearly twice as much miR-140 as the others”.
